Where “and” joins values, the source holds several entries; their conditions need not be identical. Identical values can stand only once.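 Exposure lasted 48 hours, with cells grown in 96-well plates and compounds tested at five concentrations. At the GI50, growth is halved. TGI: concentration producing complete growth inhibition.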
What was measured:
Assay in all cases: NCI-60 cell line screen, 48 h
SW-620 colon = test system: SW-620 colon
SNB-75 CNS = test system: SNB-75 CNS
M14 melanoma = test system: M14 melanoma
OVCAR-8 ovarian = test system: OVCAR-8 ovarian
EKVX NSCLC = test system: EKVX NSCLC
UACC-62 melanoma = test system: UACC-62 melanoma
IGROV1 ovarian = test system: IGROV1 ovarian
KM12 colon = test system: KM12 colon
MALME-3M melanoma = test system: MALME-3M melanoma
COLO 205 colon = test system: COLO 205 colon

With `Cc1cc[c]([Sb]2[O]C(CO)C(C(O)C(O)C(=O)O)[O]2)cc1` (stereo unspecified) the GI50 (SW-620 colon) was > 100 µM, the TGI (SW-620 colon) was > 100 µM and the GI50 (SNB-75 CNS) was 23 µM. The TGI (SNB-75 CNS) was 76.8 µM, the GI50 (M14 melanoma) was 90 µM and the TGI (M14 melanoma) was > 100 µM. The GI50 (OVCAR-8 ovarian) was > 100 µM, the TGI (OVCAR-8 ovarian) was > 100 µM and the GI50 (EKVX NSCLC) was 41 µM. For the same compound, the TGI (EKVX NSCLC) was > 100 µM, the GI50 (UACC-62 melanoma) was > 100 µM and the TGI (UACC-62 melanoma) was > 100 µM. For the same compound, the GI50 (IGROV1 ovarian) was > 100 µM, the TGI (IGROV1 ovarian) was > 100 µM and the GI50 (KM12 colon) was 46.7 µM. For the same compound, the TGI (KM12 colon) was > 100 µM, the GI50 (MALME-3M melanoma) was > 100 µM and the TGI (MALME-3M melanoma) was > 100 µM.
For `O=c1cc(-c2cccc(Cl)c2)[nH]c2cc3c(cc12)OCO3`, the TGI (SW-620 colon) was > 100 µM, the TGI (SNB-75 CNS) was 0.712 µM and the GI50 (M14 melanoma) was 0.248 µM. For the same compound, the TGI (M14 melanoma) was 75 µM and 13.9 µM, the GI50 (OVCAR-8 ovarian) was 0.76 µM and the TGI (OVCAR-8 ovarian) was 35 µM and 18.1 µM. It also gave a TGI (UACC-62 melanoma) of 0.556 µM, a GI50 (IGROV1 ovarian) of 3.54 µM and a TGI (KM12 colon) of 28.1 µM. It also gave a TGI (COLO 205 colon) of 10.4 µM and a GI50 (MALME-3M melanoma) of 0.31 µM.
Compound `CCCCCCCCCCCC(c1ccccc1)[N+](C)(C)C` (stereo unspecified) has a GI50 (SW-620 colon) of 1.5 µM, a TGI (SW-620 colon) of 3.86 µM and a GI50 (SNB-75 CNS) of 1.15 µM. The TGI (SNB-75 CNS) was 2.55 µM, the GI50 (M14 melanoma) was 1.37 µM and the TGI (M14 melanoma) was 4.25 µM. For the same compound, the GI50 (OVCAR-8 ovarian) was 1.18 µM, the TGI (OVCAR-8 ovarian) was 3.06 µM and the GI50 (EKVX NSCLC) was 1.45 µM. The TGI (EKVX NSCLC) was 4.63 µM, the GI50 (IGROV1 ovarian) was 0.417 µM and the TGI (IGROV1 ovarian) was 1.79 µM. The GI50 (KM12 colon) was 0.511 µM, the TGI (KM12 colon) was 1.78 µM and the GI50 (COLO 205 colon) was 0.825 µM. The TGI (COLO 205 colon) was 2.2 µM, the GI50 (MALME-3M melanoma) was 1.29 µM and the TGI (MALME-3M melanoma) was 2.91 µM.
`Cc1cc2c(cc1Cl)SC(=Nc1ccc(Cl)cc1)N(S(=O)(=O)c1ccc(Br)s1)S2(=O)=O` was tested, and the GI50 (SW-620 colon) was 24.5 µM, the TGI (SW-620 colon) was > 100 µM and the GI50 (M14 melanoma) was 21.9 µM. It also gave a TGI (M14 melanoma) of 56.5 µM, a GI50 (OVCAR-8 ovarian) of 18.8 µM and a TGI (OVCAR-8 ovarian) of 46.1 µM. It also gave a GI50 (EKVX NSCLC) of 16.8 µM, a TGI (EKVX NSCLC) of 36.3 µM and a GI50 (UACC-62 melanoma) of 12 µM. The TGI (UACC-62 melanoma) was 25.3 µM, the GI50 (IGROV1 ovarian) was 17.6 µM and the TGI (IGROV1 ovarian) was 55.2 µM. The GI50 (KM12 colon) was 16.2 µM, the TGI (KM12 colon) was 37.7 µM and the GI50 (COLO 205 colon) was 17.8 µM. For the same compound, the TGI (COLO 205 colon) was > 100 µM.
For `OC(c1ccccc1)c1c(-c2ccccc2)[nH]c(-c2ccccc2)c1C(O)c1ccccc1` (stereo unspecified), the TGI (SW-620 colon) was 29.1 µM, the TGI (M14 melanoma) was 11.8 µM and the TGI (EKVX NSCLC) was 13.9 µM. It also gave a TGI (UACC-62 melanoma) of 7.97 µM, a TGI (IGROV1 ovarian) of 12 µM and a TGI (KM12 colon) of 6.09 µM. The TGI (COLO 205 colon) was 3.15 µM and the TGI (MALME-3M melanoma) was 7.17 µM.
In the case of `COc1ccc(-c2cc(=O)c3c(C)ccnc3[nH]2)cc1`, the TGI (SW-620 colon) is reported as > 100 µM, the TGI (M14 melanoma) is reported as > 100 µM and the TGI (OVCAR-8 ovarian) is reported as > 100 µM. The TGI (EKVX NSCLC) was > 100 µM, the TGI (UACC-62 melanoma) was 32.6 µM and the TGI (IGROV1 ovarian) was > 100 µM. It also gave a TGI (KM12 colon) of 23.2 µM, a TGI (COLO 205 colon) of 16.4 µM and a TGI (MALME-3M melanoma) of 65.2 µM.
For `COc1cccc2c1C(=O)c1c(O)c3c(c(O)c1C2=O)C[C@@](O)(/C(C)=N/NC(=O)c1cccc([N+](=O)[O-])c1)C[C@@H]3OC1CC(N)C(O)C(C)O1` (stereo partly specified), the GI50 (SW-620 colon) was 0.156 µM, the TGI (SW-620 colon) was 9.4 µM and the GI50 (SNB-75 CNS) was 0.22 µM. For the same compound, the TGI (SNB-75 CNS) was 1.5 µM, the GI50 (M14 melanoma) was 0.324 µM and the TGI (M14 melanoma) was 1.51 µM. It also gave a GI50 (OVCAR-8 ovarian) of 0.366 µM, a TGI (OVCAR-8 ovarian) of 21 µM and a GI50 (EKVX NSCLC) of 0.495 µM. The TGI (EKVX NSCLC) was 4.66 µM, the GI50 (UACC-62 melanoma) was 0.199 µM and the TGI (UACC-62 melanoma) was 1.5 µM. It also gave a GI50 (IGROV1 ovarian) of 0.932 µM, a GI50 (KM12 colon) of 0.404 µM and a TGI (KM12 colon) of 10.9 µM. The GI50 (COLO 205 colon) was 0.208 µM and the TGI (COLO 205 colon) was 1.5 µM.
With `NCCNCCNCc1c2ccccc2c(CNCCNCCN)c2ccccc12` the TGI (SW-620 colon) was > 100 µM, the TGI (M14 melanoma) was > 100 µM and the TGI (OVCAR-8 ovarian) was > 100 µM. For the same compound, the TGI (EKVX NSCLC) was > 100 µM, the TGI (UACC-62 melanoma) was > 100 µM and the TGI (IGROV1 ovarian) was > 100 µM. For the same compound, the TGI (KM12 colon) was > 100 µM, the TGI (COLO 205 colon) was > 100 µM and the TGI (MALME-3M melanoma) was > 100 µM.

Source: PubChem BioAssay (NCI)
